Experimental data taken from paper PMC9127186, “Molecular Basis Underlying Hepatobiliary and Renal Excretion of Phenolic Acids of Salvia miltiorrhiza Roots (Danshen)” (Frontiers in Pharmacology, 2022).

How the values were obtained:
human NTCP = molecular target: T1, human NTCP (Homo sapiens, UniProt Q14973); conditions: 10 min, 100 μM
T1 sequence (Q14973 1-349): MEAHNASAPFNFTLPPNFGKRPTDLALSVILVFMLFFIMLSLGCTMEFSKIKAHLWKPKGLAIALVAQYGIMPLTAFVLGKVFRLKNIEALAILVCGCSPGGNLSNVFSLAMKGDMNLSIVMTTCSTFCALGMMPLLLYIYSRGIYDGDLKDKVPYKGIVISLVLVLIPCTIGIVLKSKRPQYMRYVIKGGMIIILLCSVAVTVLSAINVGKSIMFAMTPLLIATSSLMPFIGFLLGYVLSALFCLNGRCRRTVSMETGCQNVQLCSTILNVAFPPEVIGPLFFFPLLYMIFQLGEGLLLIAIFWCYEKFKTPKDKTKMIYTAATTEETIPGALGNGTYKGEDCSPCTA

human PEPT2 = molecular target: T2, human PEPT2 (Homo sapiens, UniProt Q16348); conditions: 10 min, 100 μM, pH 6
T2 sequence (Q16348 1-729): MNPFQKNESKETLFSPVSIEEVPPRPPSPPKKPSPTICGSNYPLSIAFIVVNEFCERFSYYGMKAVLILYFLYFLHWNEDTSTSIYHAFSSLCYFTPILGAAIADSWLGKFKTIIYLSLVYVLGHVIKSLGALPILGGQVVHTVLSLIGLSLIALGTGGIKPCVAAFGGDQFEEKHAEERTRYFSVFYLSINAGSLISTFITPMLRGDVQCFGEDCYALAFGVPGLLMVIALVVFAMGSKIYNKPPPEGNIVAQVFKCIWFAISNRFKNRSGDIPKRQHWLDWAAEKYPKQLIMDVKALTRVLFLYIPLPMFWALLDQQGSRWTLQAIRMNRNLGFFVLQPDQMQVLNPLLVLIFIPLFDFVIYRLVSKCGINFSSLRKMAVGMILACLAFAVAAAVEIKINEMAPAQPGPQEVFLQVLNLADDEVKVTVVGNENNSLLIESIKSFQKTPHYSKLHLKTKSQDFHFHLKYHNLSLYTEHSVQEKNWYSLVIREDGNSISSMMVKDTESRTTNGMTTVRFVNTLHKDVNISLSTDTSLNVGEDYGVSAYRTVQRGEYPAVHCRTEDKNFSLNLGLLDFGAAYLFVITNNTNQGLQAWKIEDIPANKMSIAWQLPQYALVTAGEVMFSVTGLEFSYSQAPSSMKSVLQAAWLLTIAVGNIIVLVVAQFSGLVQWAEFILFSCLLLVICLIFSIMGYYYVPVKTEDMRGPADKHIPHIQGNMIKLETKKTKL

rat Oct1 = molecular target: T3, rat Oct1 (Rattus norvegicus, UniProt Q63089); conditions: 10 min, 100 μM
T3 sequence (Q63089 1-556): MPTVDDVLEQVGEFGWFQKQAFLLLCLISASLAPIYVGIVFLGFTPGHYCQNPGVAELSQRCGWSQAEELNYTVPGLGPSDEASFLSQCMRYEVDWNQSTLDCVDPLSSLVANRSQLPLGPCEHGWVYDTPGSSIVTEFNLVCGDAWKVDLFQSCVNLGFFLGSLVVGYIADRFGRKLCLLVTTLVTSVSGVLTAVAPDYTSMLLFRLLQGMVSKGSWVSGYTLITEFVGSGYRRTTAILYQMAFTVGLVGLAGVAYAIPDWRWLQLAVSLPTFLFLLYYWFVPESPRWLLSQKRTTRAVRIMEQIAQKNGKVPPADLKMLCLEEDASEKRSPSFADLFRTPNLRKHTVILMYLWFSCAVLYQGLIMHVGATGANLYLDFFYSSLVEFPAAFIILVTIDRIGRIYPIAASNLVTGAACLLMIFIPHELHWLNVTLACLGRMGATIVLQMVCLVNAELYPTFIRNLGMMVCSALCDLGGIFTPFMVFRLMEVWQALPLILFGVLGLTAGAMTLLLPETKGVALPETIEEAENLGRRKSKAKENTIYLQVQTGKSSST

human OCT2 = molecular target: T4, human OCT2 (Homo sapiens, UniProt O15244); conditions: 10 min, 100 μM
T4 sequence (O15244 1-555): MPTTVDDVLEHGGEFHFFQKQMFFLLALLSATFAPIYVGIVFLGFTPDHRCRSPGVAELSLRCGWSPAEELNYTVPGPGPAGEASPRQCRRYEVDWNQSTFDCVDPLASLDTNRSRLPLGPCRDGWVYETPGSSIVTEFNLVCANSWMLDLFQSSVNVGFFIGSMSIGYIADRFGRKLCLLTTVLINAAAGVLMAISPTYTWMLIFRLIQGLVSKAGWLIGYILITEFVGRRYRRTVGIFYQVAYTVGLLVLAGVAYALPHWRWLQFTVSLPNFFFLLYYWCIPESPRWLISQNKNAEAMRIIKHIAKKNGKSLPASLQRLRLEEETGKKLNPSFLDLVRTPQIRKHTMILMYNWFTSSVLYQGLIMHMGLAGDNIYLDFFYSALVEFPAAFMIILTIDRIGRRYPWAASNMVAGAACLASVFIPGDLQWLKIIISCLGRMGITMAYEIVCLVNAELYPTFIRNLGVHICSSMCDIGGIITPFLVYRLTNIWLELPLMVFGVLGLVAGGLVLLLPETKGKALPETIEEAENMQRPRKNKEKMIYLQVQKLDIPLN

human PEPT1 = molecular target: T5, human PEPT1 (Homo sapiens, UniProt P46059); conditions: 10 min, 100 μM, pH 6
T5 sequence (P46059 1-708): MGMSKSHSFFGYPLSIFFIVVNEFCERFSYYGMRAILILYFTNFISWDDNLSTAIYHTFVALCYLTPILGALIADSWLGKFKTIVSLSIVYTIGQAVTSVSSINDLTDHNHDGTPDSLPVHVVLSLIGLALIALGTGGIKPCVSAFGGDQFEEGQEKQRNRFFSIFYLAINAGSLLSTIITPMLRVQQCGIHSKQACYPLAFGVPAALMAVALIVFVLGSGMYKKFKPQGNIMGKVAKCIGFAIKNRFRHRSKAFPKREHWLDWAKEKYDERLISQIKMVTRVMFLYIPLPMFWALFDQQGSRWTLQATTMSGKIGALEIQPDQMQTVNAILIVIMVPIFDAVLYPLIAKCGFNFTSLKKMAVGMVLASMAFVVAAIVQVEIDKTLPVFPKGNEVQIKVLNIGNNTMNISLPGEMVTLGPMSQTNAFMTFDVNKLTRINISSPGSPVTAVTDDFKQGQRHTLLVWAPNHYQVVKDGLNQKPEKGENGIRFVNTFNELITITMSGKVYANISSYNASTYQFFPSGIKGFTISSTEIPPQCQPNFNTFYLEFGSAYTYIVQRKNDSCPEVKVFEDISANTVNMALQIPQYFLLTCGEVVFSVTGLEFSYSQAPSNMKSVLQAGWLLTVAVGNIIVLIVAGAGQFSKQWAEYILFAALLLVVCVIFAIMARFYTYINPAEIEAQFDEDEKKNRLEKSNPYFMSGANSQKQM

O=C(/C=C/c1ccc(O)c(O)c1)O[C@H](Cc1ccc(O)c(O)c1)C(=O)O [Rosmarinic acid, rosmarinic acid]
TransportTC/TransportMC ratio (net transport ratio) (human NTCP): 2.76 ± 0.36
TransportTC/TransportMC ratio (net transport ratio) (human PEPT2): 1.12 ± 0.22
TransportTC/TransportMC ratio (net transport ratio) (rat Oct1): 1.56 ± 0.13
TransportTC/TransportMC ratio (net transport ratio) (human OCT2): 0.85 ± 0.29
TransportTC/TransportMC ratio (net transport ratio) (human PEPT1): 1.42 ± 0.53

O=C(/C=C/c1ccc(O)c(O)c1/C=C/c1ccc(O)c(O)c1)O[C@H](Cc1ccc(O)c(O)c1)C(=O)O [Salvianolic acid A, salvianolic acid A]
TransportTC/TransportMC ratio (net transport ratio) (human NTCP): 0.93 ± 0.11
TransportTC/TransportMC ratio (net transport ratio) (human PEPT2): 1.14 ± 0.31
TransportTC/TransportMC ratio (net transport ratio) (rat Oct1): 1.13 ± 0.19
TransportTC/TransportMC ratio (net transport ratio) (human OCT2): 0.93 ± 0.32
TransportTC/TransportMC ratio (net transport ratio) (human PEPT1): 1.45 ± 0.27
